From ChEMBL document CHEMBL1201862, “PubChem BioAssay data set” (2004)
Counter-ions that a name gives are not always drawn. Calls of active or inactive are those of the source.

Tests used:
[1] = molecular target: T1, Corticotropin-releasing factor receptor 2/Corticotropin-releasing factor-binding protein (Homo sapiens, UniProt P24387+Q13324); assay: Dose Response confirmation of uHTS hits for small molecule antagonists of the CRF-binding protein and CRF-R2 receptor complex.; assay type: functional; conditions: read-out: IC50_Mean
T1 sequence (Q13324 whole entry): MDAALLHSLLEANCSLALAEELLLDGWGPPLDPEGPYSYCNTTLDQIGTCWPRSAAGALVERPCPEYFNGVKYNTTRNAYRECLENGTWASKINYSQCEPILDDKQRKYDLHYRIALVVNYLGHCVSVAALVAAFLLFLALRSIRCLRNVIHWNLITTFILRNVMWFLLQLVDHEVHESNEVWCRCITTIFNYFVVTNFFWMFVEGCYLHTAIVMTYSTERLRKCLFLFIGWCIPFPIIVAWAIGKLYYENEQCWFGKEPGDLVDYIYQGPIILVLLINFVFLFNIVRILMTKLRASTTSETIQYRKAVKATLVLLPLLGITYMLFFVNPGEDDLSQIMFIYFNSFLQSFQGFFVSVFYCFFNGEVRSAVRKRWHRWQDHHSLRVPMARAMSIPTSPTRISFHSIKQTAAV
T1 sequence (P24387 whole entry): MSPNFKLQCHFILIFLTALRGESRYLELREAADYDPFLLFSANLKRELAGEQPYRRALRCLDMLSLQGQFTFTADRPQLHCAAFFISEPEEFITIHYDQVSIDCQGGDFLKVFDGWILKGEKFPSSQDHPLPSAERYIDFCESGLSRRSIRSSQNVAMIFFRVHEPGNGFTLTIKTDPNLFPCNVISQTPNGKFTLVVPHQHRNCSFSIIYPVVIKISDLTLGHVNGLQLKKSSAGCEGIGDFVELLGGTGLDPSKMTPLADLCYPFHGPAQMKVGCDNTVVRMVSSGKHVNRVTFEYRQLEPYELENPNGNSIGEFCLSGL

[2] = molecular target: T1, Corticotropin-releasing factor receptor 2/Corticotropin-releasing factor-binding protein; assay: activators of CRF receptor 2 with binding protein – uHTS hits, confirmation (AID 602473); assay type: functional; conditions: read-out: EC50_Mean
[3] = CRF-BP/CRF-R2 complex antagonists, dose response, cell-based, uHTS hits, 384-well (AID 651639); assay type: functional, Homo sapiens; conditions: read-out: IC50_Mean
[4] = Luminescence Cell-Based Dose Response HTS to Identify Inhibitors of 5'UTR Stem-Loop Driven Prion Protein mRNA Translation in H4 Neuroglioblastoma Cells. [Related pubchem assays: 1827 (Project Summary), 1813 (Primary HTS)]; assay type: functional
cells = assay type: functional, cell-based
[5] = inhibitors of SNCA 5'UTR-driven reporter translation, confirmation, H4 neuroglioma cells, luminescence (AID 1988); assay type: functional, cell-based
[6] = molecular target: T2, Nuclear receptor subfamily 0 group B member 1 (Homo sapiens, UniProt P51843); assay type: functional, cell-based;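 further: HEK293T cells transfected with SF-1 and DAX-1 plus StAR promoter luciferase reporter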
T2 sequence (P51843 whole entry): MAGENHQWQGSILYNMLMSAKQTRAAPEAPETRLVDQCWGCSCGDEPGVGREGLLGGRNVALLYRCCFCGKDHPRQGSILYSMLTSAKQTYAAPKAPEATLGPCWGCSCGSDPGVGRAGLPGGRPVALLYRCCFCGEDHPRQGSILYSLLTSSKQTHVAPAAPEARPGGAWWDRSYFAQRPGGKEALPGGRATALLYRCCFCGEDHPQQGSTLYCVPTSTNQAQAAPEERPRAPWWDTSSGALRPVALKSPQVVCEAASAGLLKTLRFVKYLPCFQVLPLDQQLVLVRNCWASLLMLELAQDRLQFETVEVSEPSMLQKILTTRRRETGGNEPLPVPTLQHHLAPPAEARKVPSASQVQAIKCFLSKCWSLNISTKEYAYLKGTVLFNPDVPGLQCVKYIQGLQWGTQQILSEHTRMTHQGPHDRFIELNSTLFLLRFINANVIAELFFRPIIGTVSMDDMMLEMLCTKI

[7] = molecular target: T3, Mannose-6-phosphate isomerase (Homo sapiens, UniProt P34949); assay: human PMI inhibitors, high substrate, primary screen, biochemical, fluorescence intensity, high mannose 6-phosphate (AID 1220)
T3 sequence (P34949 whole entry): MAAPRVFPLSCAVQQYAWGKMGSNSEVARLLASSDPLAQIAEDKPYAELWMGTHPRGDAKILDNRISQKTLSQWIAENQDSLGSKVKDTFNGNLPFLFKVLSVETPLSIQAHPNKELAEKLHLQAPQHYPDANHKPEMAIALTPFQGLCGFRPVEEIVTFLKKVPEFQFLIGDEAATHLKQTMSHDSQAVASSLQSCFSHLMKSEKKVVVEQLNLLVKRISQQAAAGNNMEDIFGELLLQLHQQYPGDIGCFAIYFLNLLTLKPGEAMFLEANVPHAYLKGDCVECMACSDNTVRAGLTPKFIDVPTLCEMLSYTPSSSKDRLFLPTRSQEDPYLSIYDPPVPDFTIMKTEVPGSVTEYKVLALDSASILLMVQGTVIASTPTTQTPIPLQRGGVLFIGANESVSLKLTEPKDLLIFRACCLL

[8] = molecular target: T4, Sentrin-specific protease 8 (Homo sapiens, UniProt Q96LD8); assay type: functional
T4 sequence (Q96LD8 whole entry): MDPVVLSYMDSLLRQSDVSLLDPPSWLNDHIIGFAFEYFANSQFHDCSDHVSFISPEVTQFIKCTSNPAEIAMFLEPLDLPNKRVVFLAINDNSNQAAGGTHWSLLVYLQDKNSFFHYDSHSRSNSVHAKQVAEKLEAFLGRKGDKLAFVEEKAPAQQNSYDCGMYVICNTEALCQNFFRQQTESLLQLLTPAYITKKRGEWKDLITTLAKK

[9] = molecular target: T4, Sentrin-specific protease 8; assay type: functional; remark: listed apart in the source
Escherichia coli [10] = assay: microbe, parasite or virus in culture
[11] = molecular target: T5, Zinc finger protein mex-5 (Caenorhabditis elegans, UniProt Q9XUB2); assay: MEX-5/TCR-2 RNA interaction inhibitors, dose response, biochemical, C. elegans, fluorescence polarization (AID 1960)
T5 sequence (Q9XUB2 whole entry): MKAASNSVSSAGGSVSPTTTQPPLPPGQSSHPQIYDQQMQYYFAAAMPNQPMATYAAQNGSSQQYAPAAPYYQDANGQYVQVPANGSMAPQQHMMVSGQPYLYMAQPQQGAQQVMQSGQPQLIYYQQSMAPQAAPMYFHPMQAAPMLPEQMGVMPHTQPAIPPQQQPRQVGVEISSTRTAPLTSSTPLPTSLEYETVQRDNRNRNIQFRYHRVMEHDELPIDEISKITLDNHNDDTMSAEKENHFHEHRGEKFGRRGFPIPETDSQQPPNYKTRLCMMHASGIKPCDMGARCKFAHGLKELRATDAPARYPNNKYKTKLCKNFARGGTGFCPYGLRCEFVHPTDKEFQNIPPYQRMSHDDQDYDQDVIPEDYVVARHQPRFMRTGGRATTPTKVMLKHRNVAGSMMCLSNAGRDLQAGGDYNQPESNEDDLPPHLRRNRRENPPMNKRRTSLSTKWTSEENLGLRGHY

Streptococcus = assay: Group A Streptococcus viability loss, dose response, counter-screen for streptokinase expression inhibitor project, luminescence, BacTiterGlo (AID 1915); assay type: functional, organism-based;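 further: potency for reduction of bacterial viability or growth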
[12] = ARNT/TACC3 interaction disruptors, potency, confirmation, biochemical, AlphaScreen, cherry-picked samples (AID 651703); assay type: functional, Homo sapiens;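 further: His-tagged ARNT PAS-B domain paired with GST-TACC3 E629A dimer coactivator fragment; potency of inhibitors that break up the complex and lower AlphaScreen signal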
Escherichia coli [13] = assay: microbe, parasite or virus in culture; remark: listed apart in the source
[14] = tested on: Streptococcus sp. 'group A'; assay: growth inhibition of control SK(-) GAS strain, dose response, counter-screen for streptokinase expression inhibitor project, luminescence, kanamycin, BacTiterGlo, confirmation (AID 1900); assay type: functional, organism-based
[15] = molecular target: T6, RNA-binding protein pos-1 (Caenorhabditis elegans, UniProt G5EF15); assay: inhibitors of POS-1/mex-3 RNA binding, dose response, biochemical, fluorescence polarization (AID 1964);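 further: purified POS-1 fused to maltose binding protein made in E. coli; potency of compounds blocking POS-1 binding to fluorescent RNA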
T6 sequence (G5EF15 whole entry): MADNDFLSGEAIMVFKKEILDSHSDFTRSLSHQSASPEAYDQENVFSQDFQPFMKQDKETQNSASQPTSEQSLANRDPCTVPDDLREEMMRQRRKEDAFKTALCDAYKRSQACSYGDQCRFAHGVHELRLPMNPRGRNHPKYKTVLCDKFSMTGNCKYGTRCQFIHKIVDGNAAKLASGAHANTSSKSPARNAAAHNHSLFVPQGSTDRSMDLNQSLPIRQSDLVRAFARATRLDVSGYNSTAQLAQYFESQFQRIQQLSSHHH

[16] = growth suppression of PTEN-null colon cells, dose response, cell-based, HCT116 PTEN knockout (AID 1047); assay type: functional;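 further: HCT116 colon tumor cells with PTEN knocked out; cells exposed to compound for 60 hours before readout; potency for loss of cell viability measured by luminescence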
[17] = molecular target: Arf-GAP with SH3 domain, ANK repeat and PH domain-containing protein 1 (Homo sapiens, UniProt Q9ULH1); assay type: functional;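 further: biochemical fluorescence polarization dose–response screen measuring inhibition of ASAP1; ASAP1 GAP domain stimulating GTP hydrolysis by truncated human ARF1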
Sequence of Arf-GAP with SH3 domain, ANK repeat and PH domain-containing protein 1 (Q9ULH1 whole entry, the tested form may be a part): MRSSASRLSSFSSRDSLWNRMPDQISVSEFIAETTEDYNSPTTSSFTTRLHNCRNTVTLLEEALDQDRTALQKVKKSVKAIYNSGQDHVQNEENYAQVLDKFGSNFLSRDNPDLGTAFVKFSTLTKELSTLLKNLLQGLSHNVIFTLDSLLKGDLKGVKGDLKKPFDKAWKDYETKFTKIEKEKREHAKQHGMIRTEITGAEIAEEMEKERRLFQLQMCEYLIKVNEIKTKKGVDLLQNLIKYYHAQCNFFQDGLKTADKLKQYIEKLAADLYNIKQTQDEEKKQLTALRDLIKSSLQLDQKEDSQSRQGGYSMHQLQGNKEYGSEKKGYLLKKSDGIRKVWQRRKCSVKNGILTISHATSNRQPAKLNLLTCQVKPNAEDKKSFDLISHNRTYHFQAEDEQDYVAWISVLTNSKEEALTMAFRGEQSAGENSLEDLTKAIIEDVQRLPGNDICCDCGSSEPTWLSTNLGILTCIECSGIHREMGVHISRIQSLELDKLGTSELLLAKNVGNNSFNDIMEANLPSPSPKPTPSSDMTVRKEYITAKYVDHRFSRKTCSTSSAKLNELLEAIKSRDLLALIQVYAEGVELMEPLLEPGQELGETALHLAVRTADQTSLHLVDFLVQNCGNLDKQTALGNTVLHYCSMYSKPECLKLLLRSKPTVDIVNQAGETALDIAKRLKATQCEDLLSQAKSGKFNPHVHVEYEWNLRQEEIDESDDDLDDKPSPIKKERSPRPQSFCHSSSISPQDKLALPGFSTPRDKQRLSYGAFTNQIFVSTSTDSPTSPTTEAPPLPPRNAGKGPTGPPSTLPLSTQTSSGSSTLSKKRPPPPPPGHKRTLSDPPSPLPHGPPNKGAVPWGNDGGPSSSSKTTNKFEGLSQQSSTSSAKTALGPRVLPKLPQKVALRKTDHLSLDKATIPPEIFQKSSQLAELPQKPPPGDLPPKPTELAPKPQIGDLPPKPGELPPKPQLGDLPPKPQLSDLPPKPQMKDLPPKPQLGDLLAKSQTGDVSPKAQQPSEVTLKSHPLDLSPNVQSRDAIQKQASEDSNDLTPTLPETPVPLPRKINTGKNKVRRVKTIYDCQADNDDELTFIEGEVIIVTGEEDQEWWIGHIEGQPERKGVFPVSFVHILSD

[18] = molecular target: ADP-ribosylation factor GTPase-activating protein 1 (Rattus norvegicus, UniProt Q62848); assay: Fluorescence polarization-based biochemical high throughput dose response screening assay to identify inhibitors of ADP-ribosylation factor GTPase activating protein 1 (ARFGAP1).; assay type: functional
Sequence of ADP-ribosylation factor GTPase-activating protein 1 (Q62848 whole entry): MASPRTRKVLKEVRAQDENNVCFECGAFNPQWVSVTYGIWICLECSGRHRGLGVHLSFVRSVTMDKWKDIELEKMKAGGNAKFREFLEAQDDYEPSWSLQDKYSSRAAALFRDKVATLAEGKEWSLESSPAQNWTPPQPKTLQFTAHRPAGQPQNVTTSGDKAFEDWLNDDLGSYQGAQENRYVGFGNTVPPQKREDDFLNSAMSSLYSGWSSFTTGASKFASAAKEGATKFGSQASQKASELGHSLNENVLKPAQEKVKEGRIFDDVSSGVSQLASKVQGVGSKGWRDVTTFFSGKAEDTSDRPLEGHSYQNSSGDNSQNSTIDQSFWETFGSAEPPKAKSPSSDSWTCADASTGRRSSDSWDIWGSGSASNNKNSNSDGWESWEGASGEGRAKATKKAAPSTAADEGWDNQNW

[19] = growth suppression of beta-catenin-knockout colon cells, dose response, cell-based, HCT116, human colon tumor (AID 1045); assay type: functional;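 further: HCT116 colon tumor cells with beta catenin knocked out; cells exposed to compound for 60 hours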
[20] = cytotoxicity toward NIH3T3 fibroblasts, dose response, counter-screen, cell-based, ATP luminescence, mouse fibroblasts (AID 2010); assay type: functional;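 further: cells exposed to compound for about 90 hours before reading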
[21] = HEK293T cytotoxicity, dose response, cytotoxicity control for miR-122 modulator project, cell-based, inhibitor set, cherry-pick, set 2 (AID 720697); assay type: functional
[22] = Luminescence Cell-Based Dose Retest to Confirm Inhibitors of Cancer Stem Cells. [Related pubchem assays (depositor defined):AID2717, AID2721]; assay type: functional; conditions: Homo sapiens
Streptokinase A = molecular target: T7, Streptokinase A (Streptococcus pyogenes serotype M1, UniProt P10520); assay: S. pyogenes streptokinase expression inhibitors, potency, dose response, plasminogen activation absorbance, OD405 (AID 1914); assay type: functional, Streptococcus pyogenes M1 GAS;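 further: secreted streptokinase activity via plasminogen activation per viability signal from cell pellet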
T7 sequence (P10520 whole entry): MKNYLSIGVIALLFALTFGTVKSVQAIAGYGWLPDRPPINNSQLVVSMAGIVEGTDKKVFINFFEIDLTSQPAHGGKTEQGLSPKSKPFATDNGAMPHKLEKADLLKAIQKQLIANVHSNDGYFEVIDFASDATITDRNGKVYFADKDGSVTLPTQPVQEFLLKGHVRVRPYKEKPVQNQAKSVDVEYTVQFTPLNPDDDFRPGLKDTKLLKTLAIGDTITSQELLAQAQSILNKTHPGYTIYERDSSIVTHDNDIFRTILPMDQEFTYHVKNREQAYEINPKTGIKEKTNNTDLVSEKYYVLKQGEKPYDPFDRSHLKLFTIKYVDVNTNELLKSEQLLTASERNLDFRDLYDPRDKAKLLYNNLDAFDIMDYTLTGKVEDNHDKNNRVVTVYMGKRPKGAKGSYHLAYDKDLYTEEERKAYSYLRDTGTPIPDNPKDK

[23] = inhibitors of intracellular T. cruzi replication, confirmation, NIH3T3 host cells, beta-gal luminescence (AID 2044); assay type: functional, cell-based;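 further: intracellular parasites grown in NIH/3T3 mouse fibroblasts as host cells; luminescent beta-galactosidase reporter signal from transgenic T. cruzi replicating inside host cells; inhibitors lower the luminescence signal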
[24] = molecular target: SWI/SNF-related matrix-associated actin-dependent regulator of chromatin subfamily A member 2 (Homo sapiens, UniProt P51531); assay: Luminescence-based cell-based high throughput dose response assay to identify activators of the function of SWI/SNF related, matrix associated, actin dependent regulator of chromatin, subfamily a, member 2 (SMARCA2, BRM).; assay type: functional
Sequence of SWI/SNF-related matrix-associated actin-dependent regulator of chromatin subfamily A member 2 (P51531 whole entry): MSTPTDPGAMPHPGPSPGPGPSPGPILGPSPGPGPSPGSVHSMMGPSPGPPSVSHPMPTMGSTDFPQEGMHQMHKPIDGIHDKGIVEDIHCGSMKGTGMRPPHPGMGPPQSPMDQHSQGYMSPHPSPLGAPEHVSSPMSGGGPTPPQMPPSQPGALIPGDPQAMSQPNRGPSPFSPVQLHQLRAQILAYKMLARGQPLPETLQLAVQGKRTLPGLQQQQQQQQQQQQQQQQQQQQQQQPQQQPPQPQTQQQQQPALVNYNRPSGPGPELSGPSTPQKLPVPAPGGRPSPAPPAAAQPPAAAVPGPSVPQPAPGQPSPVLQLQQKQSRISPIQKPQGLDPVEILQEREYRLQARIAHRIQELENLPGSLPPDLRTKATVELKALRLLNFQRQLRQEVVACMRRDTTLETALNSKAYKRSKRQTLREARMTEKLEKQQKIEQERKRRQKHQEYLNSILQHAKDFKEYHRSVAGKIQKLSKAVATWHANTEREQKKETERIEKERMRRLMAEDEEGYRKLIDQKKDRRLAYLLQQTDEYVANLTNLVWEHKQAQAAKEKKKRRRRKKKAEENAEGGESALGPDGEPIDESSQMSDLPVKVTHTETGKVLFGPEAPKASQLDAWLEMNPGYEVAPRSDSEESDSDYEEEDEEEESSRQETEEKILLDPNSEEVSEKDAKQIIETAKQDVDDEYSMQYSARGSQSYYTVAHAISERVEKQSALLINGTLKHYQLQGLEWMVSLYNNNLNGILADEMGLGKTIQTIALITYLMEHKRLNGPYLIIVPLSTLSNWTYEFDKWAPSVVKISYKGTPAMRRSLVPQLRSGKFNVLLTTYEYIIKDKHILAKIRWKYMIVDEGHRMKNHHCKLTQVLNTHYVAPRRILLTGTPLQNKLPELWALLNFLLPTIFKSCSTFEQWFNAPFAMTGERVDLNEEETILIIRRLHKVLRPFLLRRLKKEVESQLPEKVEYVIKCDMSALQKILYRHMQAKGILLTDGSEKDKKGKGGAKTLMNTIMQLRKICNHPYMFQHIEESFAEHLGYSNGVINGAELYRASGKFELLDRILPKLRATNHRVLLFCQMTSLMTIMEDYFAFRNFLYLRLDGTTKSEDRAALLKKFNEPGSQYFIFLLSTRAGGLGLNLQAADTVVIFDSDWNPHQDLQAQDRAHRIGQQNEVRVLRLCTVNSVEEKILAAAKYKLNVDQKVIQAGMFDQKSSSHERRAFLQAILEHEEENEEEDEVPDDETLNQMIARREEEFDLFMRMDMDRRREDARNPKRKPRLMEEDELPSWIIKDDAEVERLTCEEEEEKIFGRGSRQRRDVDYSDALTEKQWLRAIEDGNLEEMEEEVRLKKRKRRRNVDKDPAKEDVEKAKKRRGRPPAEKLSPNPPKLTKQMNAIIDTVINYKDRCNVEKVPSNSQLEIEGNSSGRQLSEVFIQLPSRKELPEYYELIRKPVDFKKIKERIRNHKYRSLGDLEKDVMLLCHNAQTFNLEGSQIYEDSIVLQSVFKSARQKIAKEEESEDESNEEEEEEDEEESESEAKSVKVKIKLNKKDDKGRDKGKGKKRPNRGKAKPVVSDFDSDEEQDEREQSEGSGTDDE

[25] = Counterscreen for activators of the function of SWI/SNF related, matrix associated, actin dependent regulator of chromatin, subfamily a, member 2 (SMARCA2, BRM): Luminescence-based cell-based high throughput dose response assay to identify non-selective compounds using the VP16 reporter assay.; assay type: functional
Large T antigen = Large T antigen (Simian virus 40, UniProt P03070); assay type: functional, Betapolyomavirus macacae;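 further: Confirmatory-stage PubChem screen for compounds that inhibit SV40 T antigen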
Sequence of Large T antigen (P03070 whole entry): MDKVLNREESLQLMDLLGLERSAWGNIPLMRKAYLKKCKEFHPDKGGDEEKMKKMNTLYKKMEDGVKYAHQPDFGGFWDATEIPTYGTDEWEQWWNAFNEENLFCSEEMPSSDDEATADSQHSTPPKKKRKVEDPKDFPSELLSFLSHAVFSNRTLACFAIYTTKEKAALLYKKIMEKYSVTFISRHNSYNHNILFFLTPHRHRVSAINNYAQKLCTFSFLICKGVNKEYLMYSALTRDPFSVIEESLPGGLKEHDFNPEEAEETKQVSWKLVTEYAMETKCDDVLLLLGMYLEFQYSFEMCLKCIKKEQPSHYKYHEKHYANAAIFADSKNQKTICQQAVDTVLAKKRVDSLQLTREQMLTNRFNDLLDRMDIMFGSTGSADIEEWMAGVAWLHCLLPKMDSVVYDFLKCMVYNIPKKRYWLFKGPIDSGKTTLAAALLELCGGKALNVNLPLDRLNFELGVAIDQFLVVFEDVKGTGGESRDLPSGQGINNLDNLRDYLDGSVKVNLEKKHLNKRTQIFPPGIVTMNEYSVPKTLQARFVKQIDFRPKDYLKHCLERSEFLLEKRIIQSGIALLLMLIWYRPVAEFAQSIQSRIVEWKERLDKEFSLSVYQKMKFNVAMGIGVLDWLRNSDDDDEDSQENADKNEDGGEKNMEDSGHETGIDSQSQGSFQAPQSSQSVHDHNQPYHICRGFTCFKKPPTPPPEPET

Mu-type opioid receptor = Mu-type opioid receptor (Homo sapiens, UniProt P35372); assay type: functional, cell-based;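 further: U2OS cells with beta-arrestin recruitment to OPRM1 by beta-gal complementation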
Sequence of Mu-type opioid receptor (P35372 whole entry): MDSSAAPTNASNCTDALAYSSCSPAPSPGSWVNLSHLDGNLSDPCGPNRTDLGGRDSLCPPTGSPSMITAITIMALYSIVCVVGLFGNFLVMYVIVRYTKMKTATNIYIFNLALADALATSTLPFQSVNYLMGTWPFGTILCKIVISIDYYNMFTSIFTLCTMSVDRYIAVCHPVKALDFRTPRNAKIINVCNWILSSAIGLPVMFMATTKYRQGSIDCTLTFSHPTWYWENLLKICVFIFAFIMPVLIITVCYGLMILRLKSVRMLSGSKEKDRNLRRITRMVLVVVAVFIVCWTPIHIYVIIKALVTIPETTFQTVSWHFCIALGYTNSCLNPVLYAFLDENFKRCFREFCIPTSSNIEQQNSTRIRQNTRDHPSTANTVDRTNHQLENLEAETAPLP

With COc1ccc(/C=C2\CCC/C(=C\c3ccc(OC)c(OC)c3OC)C2=O)c(OC)c1OC the IC50 [1] was 4.04 µM (active), the EC50 [2] was > 53 µM (inactive) and the IC50 [3] was 7.33 µM (active).

In the case of COc1ccc(C(=O)NCCC2=CCCCC2)cc1, the EC50 [4] was 8.58 µM (active), the IC50 (cells) was > 67.5 µM (inactive) and the EC50 [5] was 8.69 µM (inconclusive). The IC50 [6] was > 0.278 µM (active).

With NC(=O)c1ccc(/N=C2\C(=O)Nc3ccc([N+](=O)[O-])cc32)cc1 the IC50 [7] was 27.5 µM (active), the IC50 [8] was 3.98 µM (active) and the IC50 [9] was 4.25 µM (active).

In the case of CN(C)[C@@H]1C(=O)C(C(N)=O)=C(O)[C@@]2(O)C(O)=C3C(=O)c4c(O)cccc4[C@@](C)(O)C3[C@H](O)C12 (some centres not stated), the AC50 (Escherichia coli [10]) was < 300 nM (active), the EC50 [11] was 20.5 µM (active) and the EC50 (Streptococcus) was 0.277 µM (active). For the same molecule, the AC50 [12] was 75.2 µM (active), the AC50 (Escherichia coli [13]) was 9.92 µM (active) and the EC50 [14] was 0.088 µM (active). The EC50 [15] was 54.1 µM (active).

With O=C(/C=C\c1cn(-c2ccccc2)nc1-c1ccccc1)Nc1nccs1 the EC50 [16] was 7.09 µM (active), the IC50 [17] was 26.2 µM (inactive) and the IC50 [18] was 32.1 µM (inactive). For the same molecule, the EC50 [19] was 7.96 µM (active).

For C/C(=N\Nc1cc(N2CCCCC2)nc(C)n1)c1ccc(Br)cc1, the EC50 [20] was > 60 µM (not active), the AC50 [21] was 5.41 µM (active) and the EC50 (Streptococcus) was > 50 µM (not active). The AC50 [22] was 5.52 µM (active), the EC50 (Streptokinase A) was 46.7 µM (inconclusive) and the EC50 [14] was 6.7 µM (active). The EC50 [23] was 700 nM (active).

For CCc1noc(C)c1C(=O)N1CCS/C1=N\c1cccc(Cl)c1C, the IC50 [1] was < 0.368 µM (active), the EC50 [2] was > 53 µM (inactive) and the IC50 [3] was > 20 µM (inactive).

For O=C(N/N=C/c1ccc2c(c1)OCO2)c1ccccn1, the IC50 (cells) was > 67.5 µM (inactive) and the IC50 [6] was > 67.5 µM (inactive).

In the case of O=C1C(Sc2ccccc2)=C[C@@]2(O)CC[C@@H](O)[C@]1(Sc1ccccc1)[C@H]2O, the EC50 [24] was > 91.3 µM (inactive) and the EC50 [25] was > 91.3 µM (inactive).

For NCCc1c[nH]c2ccc(O)cc12 [SEROTONIN HYDROCHLORIDE], the IC50 (Large T antigen) was 41.3 µM (active) and the EC50 (Mu-type opioid receptor) was 92.4 µM (inactive).
